This note sets out measurements from PubChem BioAssay (NCI).

Test systems include 786-0 renal; A549 NSCLC; COLO 205 colon; DU-145 prostate; HCC-2998 colon; HOP-62 NSCLC; MDA-MB-435; NCI-H226 lung; PC-3 prostate; RXF 393 renal; SF-268 CNS; SK-MEL-28 melanoma; SW-620 colon; UO-31 renal.
Common to all, as to assay: NCI anticancer screen, dose series, 48 h

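Following 48 hours of exposure in 96-well plates, responses at five concentrations were used to interpolate endpoints linearly. GI50 is the concentration that inhibits growth by half. TGI marks complete inhibition of growth.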

In the case of `CCC(=O)C1(N2CCOCC2)CCN(CCCC(=O)c2ccc(F)cc2)CC1`, the TGI with 786-0 renal, with A549 NSCLC, in the assay on COLO 205 colon, with DU-145 prostate, in the assay with HCC-2998 colon and with HOP-62 NSCLC was > 100 µM in each case. The TGI with MDA-MB-435, in the assay on NCI-H226 lung, with PC-3 prostate, with RXF 393 renal, in the assay with SF-268 CNS and with SK-MEL-28 melanoma was > 100 µM each time. Also, the TGI in the assay with SW-620 colon and in the assay on UO-31 renal was > 100 µM in each case.
For `CC1(C)C=Cc2c(cc3oc4ccc5c(c4c(=O)c3c2O)C=CC(C)(C)O5)O1`, the TGI in the assay with 786-0 renal, with A549 NSCLC, in the assay on COLO 205 colon, with DU-145 prostate, with HCC-2998 colon and in the assay on HOP-62 NSCLC was > 100 µM each time. The TGI in the assay with MDA-MB-435, in the assay on NCI-H226 lung, with PC-3 prostate, in the assay on RXF 393 renal, with SF-268 CNS and in the assay with SK-MEL-28 melanoma was > 100 µM in each case. Moreover, the TGI in the assay with SW-620 colon and in the assay with UO-31 renal was > 100 µM in each case.
Regarding `O=C1OC2C(O)COC2(O)C1(O)C(C[N+](=O)[O-])c1ccc(Cl)cc1` (configuration not stated), the TGI with 786-0 renal stood at 3.45 µM; in the assay with A549 NSCLC it was 37.1 µM; in the assay on COLO 205 colon, 12.8 µM; with DU-145 prostate, 34.2 µM; with HCC-2998 colon, 13.4 µM; in the assay with HOP-62 NSCLC, 40 µM. For the same compound, the TGI in the assay with MDA-MB-435 was 4.59 µM; with NCI-H226 lung, 26.6 µM; in the assay with PC-3 prostate, 34.3 µM; in the assay on RXF 393 renal, 9.21 µM; with SF-268 CNS, 31.3 µM; in the assay on SK-MEL-28 melanoma, 10.8 µM. Besides, the TGI with SW-620 colon was 14.1 µM; in the assay on UO-31 renal, 22.7 µM.
Consider `Cc1cc(=O)oc2cc(SC(=O)N(C)C)ccc12`, for which the TGI in the assay with 786-0 renal, with A549 NSCLC, in the assay with COLO 205 colon, with DU-145 prostate, in the assay with HCC-2998 colon and with HOP-62 NSCLC was > 100 µM in each case. Besides, the TGI in the assay with MDA-MB-435, with NCI-H226 lung, in the assay with PC-3 prostate, in the assay with RXF 393 renal, in the assay with SF-268 CNS and in the assay with SK-MEL-28 melanoma was > 100 µM each time. Moreover, the TGI in the assay on SW-620 colon and with UO-31 renal was > 100 µM throughout.
Take `CC1C(=NO)C(C)C(c2ccccc2)N(N=O)C1c1ccccc1` (configuration not stated): the TGI came out at 42.7 µM in the assay on 786-0 renal; 40.7 µM with A549 NSCLC; 31.5 µM in the assay with COLO 205 colon; 90.8 µM in the assay with DU-145 prostate; 33.8 µM in the assay on HCC-2998 colon; 41.6 µM in the assay with HOP-62 NSCLC. Further, the TGI is 44.8 µM with MDA-MB-435; 55.2 µM in the assay with NCI-H226 lung; > 100 µM in the assay on PC-3 prostate; 32.7 µM with RXF 393 renal; 35.7 µM in the assay with SF-268 CNS; 32.3 µM in the assay on SK-MEL-28 melanoma. In addition, the values for the TGI in the assay with SW-620 colon and in the assay with UO-31 renal were 42 µM and 39.1 µM, respectively.
Take `Cn1c2c(c3ccccc31)CCN1OCC=C[C@@H](C(=O)O)[C@@H]21`: the TGI in the assay with 786-0 renal, in the assay with A549 NSCLC, in the assay on COLO 205 colon, in the assay with DU-145 prostate, in the assay on HCC-2998 colon and in the assay with HOP-62 NSCLC was > 100 µM each time. The TGI in the assay with MDA-MB-435, in the assay on NCI-H226 lung, in the assay with PC-3 prostate, in the assay with RXF 393 renal, in the assay with SF-268 CNS and in the assay on SK-MEL-28 melanoma was > 100 µM throughout. The TGI in the assay with SW-620 colon and in the assay with UO-31 renal was > 100 µM throughout.
As for `Nc1ccc(Oc2ccc(C3(c4ccc(Oc5ccc(N)cc5)cc4)C4CC5C6CC7CC5C3C(C7)C6C4)cc2)cc1`, the TGI in the assay on 786-0 renal is > 100 µM; in the assay with A549 NSCLC, > 100 µM; with COLO 205 colon, > 100 µM; in the assay on DU-145 prostate it was > 100 µM; with HCC-2998 colon, > 77.9 µM; in the assay on HOP-62 NSCLC, > 100 µM. In addition, the TGI with MDA-MB-435 was 82.9 µM; with NCI-H226 lung it was > 100 µM; in the assay with PC-3 prostate, > 100 µM; in the assay with RXF 393 renal, 22.6 µM; in the assay on SF-268 CNS, > 100 µM; in the assay on SK-MEL-28 melanoma, > 100 µM. Besides, the TGI in the assay on SW-620 colon and in the assay on UO-31 renal was > 100 µM throughout.
On to `O=C(NO)c1ccc(OCc2cccc(Cl)c2)cc1`, for which the TGI in the assay on 786-0 renal was 19.1 µM; in the assay with A549 NSCLC it was > 63.8 µM; in the assay on COLO 205 colon, 51.7 µM; in the assay on DU-145 prostate it was > 47.3 µM; in the assay with HCC-2998 colon, 24.4 µM; with HOP-62 NSCLC, > 47 µM. The TGI is 44 µM with MDA-MB-435; 36 µM in the assay on NCI-H226 lung; > 44.1 µM in the assay with PC-3 prostate; 47.6 µM in the assay with RXF 393 renal; 38.2 µM in the assay on SF-268 CNS; 65.1 µM in the assay with SK-MEL-28 melanoma. In addition, the TGI with SW-620 colon is > 100 µM; in the assay with UO-31 renal, 35.6 µM.
On to `C/C(=C/c1ccccc1)CN(C(=O)/C=C\Sc1ccccc1)C(C)(C)C`, for which the TGI in the assay on 786-0 renal, with A549 NSCLC, with COLO 205 colon, with DU-145 prostate, in the assay on HCC-2998 colon and in the assay on HOP-62 NSCLC was > 100 µM in each case. Moreover, the TGI is > 100 µM in the assay with MDA-MB-435; > 100 µM with NCI-H226 lung; > 100 µM in the assay with PC-3 prostate; > 100 µM in the assay with RXF 393 renal; > 38.1 µM in the assay with SF-268 CNS; > 100 µM with SK-MEL-28 melanoma. The TGI in the assay with SW-620 colon and in the assay on UO-31 renal was > 100 µM throughout.
Regarding `O=C1C=CC(=O)c2c1cc([N+](=O)[O-])c1ccoc21`, the TGI in the assay on 786-0 renal was 3.35 µM; in the assay with A549 NSCLC, 40.9 µM; with COLO 205 colon, 8.63 µM; in the assay on DU-145 prostate it was > 58.6 µM; in the assay with HCC-2998 colon it was 41.6 µM; with HOP-62 NSCLC, 31.8 µM. The TGI with MDA-MB-435 is 26.2 µM; in the assay with NCI-H226 lung, > 62.7 µM; in the assay with PC-3 prostate, 30.7 µM; in the assay on RXF 393 renal it was 3.75 µM; with SF-268 CNS, > 65.1 µM; in the assay with SK-MEL-28 melanoma, 60 µM. Also, the figures for the TGI in the assay on SW-620 colon and with UO-31 renal were > 100 µM and 8.09 µM, respectively.
In the case of `CC(C)(C)N1C(=O)c2ccccc2C1(O)C(F)(F)F` (configuration not stated), the TGI with 786-0 renal, in the assay with A549 NSCLC, with COLO 205 colon, in the assay with DU-145 prostate, in the assay on HCC-2998 colon and with HOP-62 NSCLC was > 100 µM in each case. The TGI with MDA-MB-435, in the assay on NCI-H226 lung, in the assay with PC-3 prostate, with RXF 393 renal, in the assay with SF-268 CNS and with SK-MEL-28 melanoma was > 100 µM each time. Further, the TGI in the assay on SW-620 colon and with UO-31 renal was > 100 µM in each case.
As for `COc1ccc(C2=Nn3c(nc4sc(C)c(C)c4c3=O)SC2)cc1`, the TGI in the assay on 786-0 renal, in the assay on A549 NSCLC, with COLO 205 colon, in the assay on DU-145 prostate, with HCC-2998 colon and in the assay with HOP-62 NSCLC was > 100 µM in each case. Also, the TGI with MDA-MB-435, with NCI-H226 lung, in the assay on PC-3 prostate, in the assay on RXF 393 renal, in the assay with SF-268 CNS and with SK-MEL-28 melanoma was > 100 µM each time. Moreover, the TGI in the assay on SW-620 colon and in the assay with UO-31 renal was > 100 µM in each case.
With `O=C1Oc2ccccc2C(=O)/C1=C/N1C(=O)/C(=C/c2ccc3c(c2)OCO3)SC1=S`, the TGI with 786-0 renal is > 54.8 µM; in the assay on A549 NSCLC, 35.4 µM; in the assay on COLO 205 colon it was 36.6 µM; with DU-145 prostate it was 49.1 µM; in the assay on HCC-2998 colon it was 28.9 µM; in the assay on HOP-62 NSCLC it was 24.4 µM. Besides, the TGI was determined as 39.7 µM in the assay on MDA-MB-435; 34.5 µM in the assay on NCI-H226 lung; 30.6 µM in the assay on PC-3 prostate; 40.2 µM in the assay with RXF 393 renal; 32.6 µM in the assay on SF-268 CNS; 36.8 µM in the assay with SK-MEL-28 melanoma. The values for the TGI in the assay on SW-620 colon and in the assay with UO-31 renal were 43.5 µM and 22.9 µM, respectively. Further, the GI50 in the assay on UO-31 renal is 7.14 µM.
For the compound `O=C1c2sc(-c3ccc(F)cc3)cc2-n2cccc21`, the TGI in the assay on 786-0 renal was 32.2 µM; in the assay on A549 NSCLC, > 100 µM; in the assay with COLO 205 colon, > 100 µM; in the assay with DU-145 prostate, > 100 µM; in the assay with HCC-2998 colon it was > 100 µM; in the assay with HOP-62 NSCLC, 37.3 µM. The TGI with MDA-MB-435 was > 100 µM; in the assay with NCI-H226 lung, 82.2 µM; with PC-3 prostate, > 100 µM; with RXF 393 renal, 73.1 µM; with SF-268 CNS, 52.1 µM; in the assay on SK-MEL-28 melanoma, > 100 µM. Moreover, the TGI in the assay on SW-620 colon and in the assay with UO-31 renal was > 100 µM throughout.
